Assay results taken from patent US12077555B2, “STAT degraders and uses thereof” (Kymera Therapeutics, Inc., priority 2019, dated 2024).
Where two headings read alike, the source gives them in different places.

Target: STAT3 (Homo sapiens, UniProt P40763)
Assay: Quantitation of STAT3 degradation in A549 cells by Western blot
Assay type: cell-based
Set-up: expressed in transfected cells; host or cells: A549
Experimental: Degradation of total cellular STAT3 protein in A549 was quantitatively measured using SDS-PAGE and Western blot analysis. A549 cells (5×10^5 cells/well, 2 mL) were seeded into 6-well plates and were incubated in the incubator under 5% CO2 overnight to reach ˜80% confluency. The next day, the culture medium was changed with 1 ml fresh media. Then, 1 mL of media containing 2× compound solution was added into the well to make the final concentration of 30 μM, 10 μM, 3 μM, 1 μM, 0.3 μM and 0 μM (DMSO). The media was thoroughly mixed and incubated for 24 hours at 37° C. under 5% CO2. Then, the culture media was removed from the assay plates and the cells were washed with ice-cold PBS twice. To prepare cell lysates, 200 ul pre-chilled RIPA lysis buffer (Boston BioProducts BP-115D) with protease/phosphatase inhibitor (Roche 05892791001/Roche 04906837001) was added directly into the well to lyse the cells for 20 minutes on ice. The cell lysates were then transferred to centrifuge tubes. Insoluble part of lysates was removed by centrifuging the lysates at 13000 rpm for 20 minutes. The supernatant was then collected and mixed with 5× loading buffer (Beyotime Bio P0015) to make the final samples for SDS-PAGE analysis. The samples were heated at 100° C. for 10 minutes and cool to room temperature before centrifuging at 13000 rpm for 20 minutes. To analyze the samples by SDS-PAGE, 10 ul samples were loaded onto SDS-PAGE gel (Novex, WG1403BOX) and the SDS-PAGE gel was run for 20 minutes at 80 V, then at 120 V for 1.5 hours. The SDS-PAGE gel was then transferred to nitrocellulose membrane using the wet-transfer method at 250 mA for 1.5 hours. The membrane was then blocked with LI-COR blocking buffer (LI-COR, 927-50000) for 1 hour and was probed with primary antibody (mouse anti-STAT3 (124H6) (CST #91395) 1:2000 or mouse anti-beta-Actin (8H10D10) (CST #3700) 1:10000) at 4° C. overnight. The membrane was then washed three times with TBST buffer and probed with secondary antibody (anti-mouse IgG (LI-COR, 926-68070), 1:5000) for 1 hour at room temperature. The membrane was then scanned on a LI-COR Odyssey instrument and was quantified using Image Studio Version 5.2. Concentration at 50% degradation (DC50) was calculated by fitting dose dependent degradation data using a sigmoidal equation using GraphPad Prism Version 8.0.

[1] = read-out: A549 DC50, 24 hours, tested up to 30 μM or 10 μM

Sequence of STAT3 (P40763 whole entry): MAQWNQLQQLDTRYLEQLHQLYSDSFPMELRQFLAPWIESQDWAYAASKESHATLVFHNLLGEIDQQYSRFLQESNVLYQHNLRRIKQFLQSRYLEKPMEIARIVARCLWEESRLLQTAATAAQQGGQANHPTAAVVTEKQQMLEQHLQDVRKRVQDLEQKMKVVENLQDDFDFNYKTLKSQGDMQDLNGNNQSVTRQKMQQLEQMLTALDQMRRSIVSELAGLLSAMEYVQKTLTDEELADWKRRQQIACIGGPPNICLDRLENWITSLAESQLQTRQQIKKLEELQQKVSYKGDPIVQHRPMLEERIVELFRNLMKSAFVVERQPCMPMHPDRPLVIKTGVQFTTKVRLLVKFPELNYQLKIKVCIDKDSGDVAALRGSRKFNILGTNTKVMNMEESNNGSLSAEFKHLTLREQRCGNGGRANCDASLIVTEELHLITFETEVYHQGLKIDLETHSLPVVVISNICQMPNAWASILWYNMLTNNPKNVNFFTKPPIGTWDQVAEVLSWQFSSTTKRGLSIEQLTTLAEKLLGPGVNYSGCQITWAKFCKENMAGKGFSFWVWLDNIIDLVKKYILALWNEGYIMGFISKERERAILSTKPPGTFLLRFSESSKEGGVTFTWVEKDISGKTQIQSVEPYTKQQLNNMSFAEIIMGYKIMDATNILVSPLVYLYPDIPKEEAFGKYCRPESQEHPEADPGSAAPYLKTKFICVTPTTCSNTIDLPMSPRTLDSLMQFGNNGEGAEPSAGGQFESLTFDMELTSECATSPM

| SMILES | DC50 (24 hours, tested up to 30 μM or 10 μM, read-out: A549 DC50) [µM] | DC50 [1] [µM] |
| --- | --- | --- |
| C/C(=C\C(=O)N[C@H]1CCc2cccc3c2N(C1=O)[C@H](C(=O)N[C@@H](CCC(N)=O)[C@@H](C)OCc1ccc(CCCOCCOCCOCCOCCOc2cc(-c4scnc4C)ccc2CNC(=O)[C@@H]2C[C@@H](O)CN2C(=O)[C@@H](NC(=O)C2(F)CC2)C(C)(C)C)cc1)C3)c1ccc(C(F)(F)P(=O)(OCOC(=O)C(C)(C)C)OCOC(=O)C(C)(C)C)cc1 [Compound I-16] | > 30 | – |
| C/C(=C\C(=O)N[C@H]1CCc2cccc3c2N(C1=O)[C@H](C(=O)N[C@@H](CCC(N)=O)[C@@H](C)OCc1ccc(CCCOCCOCCOCCOc2cc(-c4scnc4C)ccc2CNC(=O)[C@@H]2C[C@@H](O)CN2C(=O)[C@@H](NC(=O)C2(F)CC2)C(C)(C)C)cc1)C3)c1ccc(C(F)(F)P(=O)(OCOC(=O)C(C)(C)C)OCOC(=O)C(C)(C)C)cc1 [Compound I-17] | – | > 30 |
| C/C(=C\C(=O)N[C@H]1CCc2cccc3c2N(C1=O)[C@H](C(=O)N[C@@H](CCC(N)=O)[C@@H](C)OCc1ccc(CCCCOCC(=O)N[C@H](C(=O)N2C[C@@H](O)C[C@H]2C(=O)NCc2ccc(-c4scnc4C)cc2)C(C)(C)C)cc1)C3)c1ccc(C(F)(F)P(=O)(OCOC(=O)C(C)(C)C)OCOC(=O)C(C)(C)C)cc1 [Compound I-21] | – | > 30 |
| C/C(=C\C(=O)N[C@H]1CCc2cccc3c2N(C1=O)[C@H](C(=O)N[C@@H](CCC(N)=O)[C@@H](C)OCc1ccc(CCCCOc2cc(-c4scnc4C)ccc2CNC(=O)[C@@H]2C[C@@H](O)CN2C(=O)[C@@H](NC(=O)C2(F)CC2)C(C)(C)C)cc1)C3)c1ccc(C(F)(F)P(=O)(OCOC(=O)C(C)(C)C)OCOC(=O)C(C)(C)C)cc1 [Compound I-26] | – | > 10 |
| C/C(=C\C(=O)N[C@H]1CCc2cccc3c2N(C1=O)[C@H](C(=O)N[C@@H](CCC(N)=O)[C@@H](C)OCc1ccc(CCOCCOCCOCCOCC(=O)N[C@H](C(=O)N2C[C@H](O)C[C@H]2C(=O)NCc2ccc(-c4scnc4C)cc2)C(C)(C)C)cc1)C3)c1ccc(C(F)(F)P(=O)(OCOC(=O)C(C)(C)C)OCOC(=O)C(C)(C)C)cc1 [Compound I-27] | – | > 10 |
| C/C(=C\C(=O)N[C@H]1CCc2cccc3c2N(C1=O)[C@H](C(=O)N[C@@H](CCC(N)=O)[C@@H](C)OCc1ccc(CCCCCCC(=O)N[C@H](C(=O)N2C[C@H](O)C[C@H]2C(=O)NCc2ccc(-c4scnc4C)cc2)C(C)(C)C)cc1)C3)c1ccc(C(F)(F)P(=O)(OCOC(=O)C(C)(C)C)OCOC(=O)C(C)(C)C)cc1 [Compound I-28] | – | < 30 |
| C/C(=C\C(=O)N[C@H]1CCc2cccc3c2N(C1=O)[C@H](C(=O)N[C@@H](CCC(N)=O)[C@@H](C)OCc1ccc(CCCOCCCCCc2cccc4c2n(C)c(=O)n4C2CCC(=O)NC2=O)cc1)C3)c1ccc(C(F)(F)P(=O)(OCOC(=O)C(C)(C)C)OCOC(=O)C(C)(C)C)cc1 (stereo partly shown) [Compound I-29] | – | > 10 |
| C/C(=C\C(=O)N[C@H]1CCc2cccc3c2N(C1=O)[C@H](C(=O)N[C@@H](CCC(N)=O)[C@@H](C)OCc1ccc(CCOCCOCCOCC(=O)N[C@H](C(=O)N2C[C@H](O)C[C@H]2C(=O)NCc2ccc(-c4scnc4C)cc2)C(C)(C)C)cc1)C3)c1ccc(C(F)(F)P(=O)(OCOC(=O)C(C)(C)C)OCOC(=O)C(C)(C)C)cc1 [Compound I-30] | – | > 10 |
| C/C(=C\C(=O)N[C@H]1CCc2cccc3c2N(C1=O)[C@H](C(=O)N[C@@H](CCC(N)=O)[C@@H](C)OCc1ccc(CCOCCOCC(=O)N[C@H](C(=O)N2C[C@H](O)C[C@H]2C(=O)NCc2ccc(-c4scnc4C)cc2)C(C)(C)C)cc1)C3)c1ccc(C(F)(F)P(=O)(OCOC(=O)C(C)(C)C)OCOC(=O)C(C)(C)C)cc1 [Compound I-31] | – | > 30 |
| C/C(=C\C(=O)N[C@H]1CCc2cccc3c2N(C1=O)[C@H](C(=O)NC(CCC(N)=O)[C@@H](C)OCc1ccc(CCCOCCOCCOCCOCC(=O)N[C@H](C(=O)N2C[C@H](O)C[C@H]2C(=O)NCc2ccc(-c4scnc4C)cc2)C(C)(C)C)cc1)C3)c1ccc(C(F)(F)P(=O)(OCOC(=O)C(C)(C)C)OCOC(=O)C(C)(C)C)cc1 (stereo partly shown) [Compound I-32] | – | > 10 |
| C/C(=C\C(=O)N[C@H]1CCc2cccc3c2N(C1=O)[C@H](C(=O)NC(CCC(N)=O)[C@@H](C)OCc1ccc(CCCOCCOCCOCC(=O)N[C@H](C(=O)N2C[C@H](O)C[C@H]2C(=O)NCc2ccc(-c4scnc4C)cc2)C(C)(C)C)cc1)C3)c1ccc(C(F)(F)P(=O)(OCOC(=O)C(C)(C)C)OCOC(=O)C(C)(C)C)cc1 (stereo partly shown) [Compound I-33] | – | > 10 |
| C/C(=C\C(=O)N[C@H]1CCc2cccc3c2N(C1=O)[C@H](C(=O)NC(CCC(N)=O)[C@@H](C)OCc1ccc(CCCCOCC(=O)N[C@H](C(=O)N2C[C@H](O)C[C@H]2C(=O)NCc2ccc(-c4scnc4C)cc2)C(C)(C)C)cc1)C3)c1ccc(C(F)(F)P(=O)(OCOC(=O)C(C)(C)C)OCOC(=O)C(C)(C)C)cc1 (stereo partly shown) [Compound I-34] | – | < 30 |
| C/C(=C\C(=O)N[C@H]1CCc2cccc3c2N(C1=O)[C@H](C(=O)NC(CCC(N)=O)[C@@H](C)OCc1ccc(CCCOCC(=O)N[C@H](C(=O)N2C[C@H](O)CC2C(=O)NCc2ccc(-c4scnc4C)cc2)C(C)(C)C)cc1)C3)c1ccc(C(F)(F)P(=O)(OCOC(=O)C(C)(C)C)OCOC(=O)C(C)(C)C)cc1 (stereo partly shown) [Compound I-35] | – | < 30 |
| C/C(=C\C(=O)N[C@H]1CCc2cccc3c2N(C1=O)[C@H](C(=O)NC(CCC(N)=O)[C@@H](C)OCc1ccc(CCCOCCCCCc2ccc4c(c2)n(C)c(=O)n4C2CCC(=O)NC2=O)cc1)C3)c1ccc(C(F)(F)P(=O)(OCOC(=O)C(C)(C)C)OCOC(=O)C(C)(C)C)cc1 (stereo partly drawn) [Compound I-36, [([4-[(1E)-1-[[(2S,11S)-2-[[(3S,4R)-1-carbamoyl-4-([4-[3-([5-[1-(2,6-dioxopiperidin-3-yl)-3-methyl-2-oxo-1,3-benzodiazol-5-yl]pentyl]oxy)propyl]phenyl]methoxy)pentan-3-yl]carbamoyl]-12-oxo-1-azatricyclo[6.4.1.0^[4,13]]trideca-4(13),5,7-trien-11-yl]carbamoyl]prop-1-en-2-yl]phenyl]difluoromethyl([(2,2-dimethylpropanoyl)oxy]methoxy)phosphoryl)oxy]methyl 2,2-dimethylpropanoate] | – | > 10 |
| C/C(=C\C(=O)N[C@H]1CCc2cccc3c2N(C1=O)[C@H](C(=O)NC(CCC(N)=O)[C@@H](C)OCc1ccc(CCCOCCOCC(=O)N[C@H](C(=O)N2C[C@H](O)C[C@H]2C(=O)NCc2ccc(-c4scnc4C)cc2)C(C)(C)C)cc1)C3)c1ccc(C(F)(F)P(=O)(OCOC(=O)C(C)(C)C)OCOC(=O)C(C)(C)C)cc1 (stereo partly shown) [Compound I-37] | – | > 10 |
| C/C(=C\C(=O)N[C@H]1CCc2cccc3c2N(C1=O)[C@H](C(=O)N[C@@H](CCC(N)=O)[C@@H](C)OCc1ccc(CCCCCOCCCc2cccc4c2n(C)c(=O)n4C2CCC(=O)NC2=O)cc1)C3)c1ccc(C(F)(F)P(=O)(OCOC(=O)C(C)(C)C)OCOC(=O)C(C)(C)C)cc1 (stereo partly drawn) [Compound I-38, [([4-[(1E)-1-[[(2S,11S)-2-[[(3S,4R)-1-carbamoyl-4-[[4-(5-[3-[1-(2,6-dioxopiperidin-3-yl)-3-methyl-2-oxo-1,3-benzodiazol-4-yl]propoxy]pentyl)phenyl]methoxy]pentan-3-yl]carbamoyl]-12-oxo-1-azatricyclo[6.4.1.0^[4,13]]trideca-4(13),5,7-trien-11-yl]carbamoyl]prop-1-en-2-yl]phenyl]difluoromethyl([(2,2-dimethylpropanoyl)oxy]methoxy)phosphoryl)oxy]methyl 2,2-dimethylpropanoate] | – | > 10 |
| C/C(=C\C(=O)N[C@H]1CCc2cccc3c2N(C1=O)[C@H](C(=O)NC(CCC(N)=O)[C@@H](C)OCc1ccc(CCCOCCCCCOCCCc2cccc4c2n(C)c(=O)n4C2CCC(=O)NC2=O)cc1)C3)c1ccc(C(F)(F)P(=O)(OCOC(=O)C(C)(C)C)OCOC(=O)C(C)(C)C)cc1 (stereo partly shown) [Compound I-43] | – | > 30 |
| C/C(=C\C(=O)N[C@H]1CCc2cccc3c2N(C1=O)[C@H](C(=O)NC(CCC(N)=O)[C@@H](C)OCc1ccc(CCCOCCCCCCOCCCc2cccc4c2n(C)c(=O)n4C2CCC(=O)NC2=O)cc1)C3)c1ccc(C(F)(F)P(=O)(OCOC(=O)C(C)(C)C)OCOC(=O)C(C)(C)C)cc1 (stereo partly shown) [Compound I-44] | – | > 30 |
| C/C(=C\C(=O)N[C@H]1CCc2cccc3c2N(C1=O)[C@H](C(=O)N[C@@H](CCC(N)=O)[C@@H](C)OCc1ccc(CCCOCCOCCCc2ccc4c(c2)n(C)c(=O)n4C2CCC(=O)NC2=O)cc1)C3)c1ccc(C(F)(F)P(=O)(OCOC(=O)C(C)(C)C)OCOC(=O)C(C)(C)C)cc1 (stereo partly shown) [Compound I-54] | – | > 30 |
